# Data taken from ChEMBL document CHEMBL1201862, “PubChem BioAssay data set” (2004).
#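 Interpolation was linear, between the two tested concentrations surrounding the appropriate level; five concentrations were tested over 48 hours in 96-well plates. GI50 is the concentration that inhibits growth by half.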 Calls of active or inactive are those of the source. Rule as the data show it: active = GI50 up to about 1.1 µM and inactive = higher.
# Tests used:
# Experiment in all cases: DTP human tumour cell line panel, 48 h
# HCT-116 = test system: HCT-116
# SNB-78 = test system: SNB-78
# SK-OV-3 = test system: SK-OV-3
# U-251 = test system: U-251
# DLD-1 = test system: DLD-1
# HT-29 = test system: HT-29
# MCF7 = test system: MCF7
# OVCAR-8 = test system: OVCAR-8
# LOX IMVI = test system: LOX IMVI
# OVCAR-4 = test system: OVCAR-4
# M19-MEL = test system: M19-MEL
# RPMI-8226 = test system: RPMI-8226
# ACHN = test system: ACHN
# DMS-273 = test system: DMS-273
# SR = test system: SR
# TK-10 = test system: TK-10
# LXFL 529 = test system: LXFL 529
# SN12C = test system: SN12C
# MOLT-4 = test system: MOLT-4
# NCI-H460 = test system: NCI-H460
# NCI-H226 = test system: NCI-H226
# RXF 393 = test system: RXF 393
# A549 = test system: A549
# SNB-19 = test system: SNB-19
# SNB-75 = test system: SNB-75
# SK-MEL-28 = test system: SK-MEL-28
# NCI-H522 = test system: NCI-H522
# EKVX = test system: EKVX
# UACC-62 = test system: UACC-62
# HL-60 = test system: HL-60
# IGROV-1 = test system: IGROV-1
# DMS-114 = test system: DMS-114
# M14 = test system: M14
# SF-295 = test system: SF-295
# KM12 = test system: KM12
# SF-539 = test system: SF-539
# SK-MEL-5 = test system: SK-MEL-5
# UO-31 = test system: UO-31
# 786-0 = test system: 786-0
# Malme-3M = test system: Malme-3M
# NCI-H23 = test system: NCI-H23
# CCRF-CEM = test system: CCRF-CEM
# SK-MEL-2 = test system: SK-MEL-2
# XF498 = test system: XF498
# K562 = test system: K562
# COLO 205 = test system: COLO 205
# HOP-62 = test system: HOP-62
# HCT-15 = test system: HCT-15
# SF-268 = test system: SF-268
# SW-620 = test system: SW-620
# OVCAR-5 = test system: OVCAR-5
# OVCAR-3 = test system: OVCAR-3
# KM-20L2 = test system: KM-20L2
# A498 = test system: A498
# CAKI-1 = test system: CAKI-1
# UACC-257 = test system: UACC-257
# NCI/ADR-RES = test system: NCI/ADR-RES
# HOP-92 = test system: HOP-92
# HCC 2998 = test system: HCC 2998
smiles,measurement,setting,value
COc1ccc2c3c(c4cc(OC)c(OC)cc4c2c1)C[C@H]1CCCCN1C3 [CRYPTOPLEURINE],GI50,HCT-116,0.005 µM (active)
same,GI50,SNB-78,0.005 µM (active)
same,GI50,SK-OV-3,0.005 µM (active)
same,GI50,U-251,0.005 µM (active)
same,GI50,DLD-1,0.005 µM (active)
same,GI50,HT-29,0.005 µM (active)
same,GI50,MCF7,0.005 µM (active)
same,GI50,OVCAR-8,0.005 µM (active)
same,GI50,LOX IMVI,0.005 µM (active)
same,GI50,OVCAR-4,0.005 µM (active)
CC(=O)Nc1cc2c(s1)CCC1CC(=O)NN=C21 (stereo unspecified),GI50,M19-MEL,> 100 µM (inactive)
same,GI50,HCT-116,> 100 µM (inactive)
same,GI50,RPMI-8226,> 100 µM (inactive)
same,GI50,ACHN,> 100 µM (inactive)
same,GI50,DMS-273,> 100 µM (inactive)
same,GI50,SNB-78,> 100 µM (inactive)
same,GI50,SR,> 100 µM (inactive)
same,GI50,TK-10,> 100 µM (inactive)
same,GI50,LXFL 529,> 100 µM (inactive)
same,GI50,SN12C,> 100 µM (inactive)
same,GI50,MOLT-4,> 100 µM (inactive)
same,GI50,NCI-H460,> 100 µM (inactive)
same,GI50,U-251,> 100 µM (inactive)
same,GI50,NCI-H226,> 100 µM (inactive)
same,GI50,RXF 393,> 100 µM (inactive)
same,GI50,A549,> 100 µM (inactive)
same,GI50,SNB-19,> 100 µM (inactive)
same,GI50,SNB-75,26.5 µM (inactive)
same,GI50,SK-MEL-28,> 100 µM (inactive)
same,GI50,HT-29,> 100 µM (inactive)
same,GI50,NCI-H522,> 100 µM (inactive)
same,GI50,EKVX,> 100 µM (inactive)
same,GI50,UACC-62,> 100 µM (inactive)
same,GI50,HL-60,> 100 µM (inactive)
same,GI50,OVCAR-8,> 100 µM (inactive)
same,GI50,IGROV-1,> 100 µM (inactive)
same,GI50,DMS-114,> 100 µM (inactive)
same,GI50,M14,> 100 µM (inactive)
same,GI50,LOX IMVI,> 100 µM (inactive)
same,GI50,SF-295,> 100 µM (inactive)
same,GI50,KM12,> 100 µM (inactive)
same,GI50,SF-539,> 100 µM (inactive)
same,GI50,SK-MEL-5,> 100 µM (inactive)
same,GI50,UO-31,> 100 µM (inactive)
same,GI50,786-0,> 100 µM (inactive)
same,GI50,Malme-3M,> 100 µM (inactive)
same,GI50,NCI-H23,> 100 µM (inactive)
same,GI50,CCRF-CEM,> 100 µM (inactive)
same,GI50,SK-MEL-2,> 100 µM (inactive)
same,GI50,OVCAR-4,> 100 µM (inactive)
same,GI50,XF498,> 100 µM (inactive)
same,GI50,K562,> 100 µM (inactive)
same,GI50,COLO 205,> 100 µM (inactive)
same,GI50,HOP-62,> 100 µM (inactive)
same,GI50,HCT-15,> 100 µM
same,GI50,SF-268,> 100 µM (inactive)
same,GI50,SW-620,> 100 µM (inactive)
same,GI50,OVCAR-5,> 100 µM (inactive)
same,GI50,OVCAR-3,> 100 µM (inactive)
same,GI50,KM-20L2,> 100 µM (inactive)
Nc1cccc2c1C1=NNC(=O)CC1C2 (stereo unspecified),GI50,M19-MEL,> 100 µM (inactive)
same,GI50,HCT-116,> 100 µM (inactive)
same,GI50,RPMI-8226,> 100 µM (inactive)
same,GI50,A498,> 100 µM (inactive)
same,GI50,DMS-273,> 100 µM (inactive)
same,GI50,SNB-78,> 100 µM (inactive)
same,GI50,SN12C,> 100 µM (inactive)
same,GI50,SK-OV-3,> 100 µM (inactive)
same,GI50,CAKI-1,> 100 µM (inactive)
same,GI50,MOLT-4,> 100 µM (inactive)
same,GI50,NCI-H460,> 100 µM (inactive)
same,GI50,U-251,> 100 µM (inactive)
same,GI50,NCI-H226,> 100 µM (inactive)
same,GI50,RXF 393,> 100 µM (inactive)
same,GI50,A549,> 100 µM (inactive)
same,GI50,SNB-19,> 100 µM (inactive)
same,GI50,SNB-75,> 100 µM (inactive)
same,GI50,DLD-1,> 100 µM (inactive)
same,GI50,UACC-257,> 100 µM (inactive)
same,GI50,SK-MEL-28,> 100 µM (inactive)
same,GI50,NCI-H522,> 100 µM (inactive)
same,GI50,EKVX,> 76.6 µM (inactive)
same,GI50,UACC-62,> 100 µM (inactive)
same,GI50,HL-60,> 66.5 µM (inactive)
same,GI50,NCI/ADR-RES,> 100 µM (inactive)
same,GI50,HOP-92,2.51 µM (inactive)
same,GI50,MCF7,> 100 µM (inactive)
same,GI50,OVCAR-8,> 100 µM (inactive)
same,GI50,IGROV-1,> 100 µM (inactive)
same,GI50,DMS-114,> 100 µM (inactive)
same,GI50,LOX IMVI,> 100 µM (inactive)
same,GI50,SF-295,> 100 µM (inactive)
same,GI50,KM12,> 100 µM (inactive)
same,GI50,SF-539,> 100 µM (inactive)
same,GI50,SK-MEL-5,> 100 µM (inactive)
same,GI50,UO-31,> 100 µM (inactive)
same,GI50,Malme-3M,> 100 µM (inactive)
same,GI50,CCRF-CEM,> 100 µM (inactive)
same,GI50,SK-MEL-2,> 100 µM (inactive)
same,GI50,OVCAR-4,> 100 µM (inactive)
same,GI50,XF498,> 100 µM (inactive)
same,GI50,HCC 2998,> 100 µM (inactive)
same,GI50,K562,> 100 µM (inactive)
same,GI50,COLO 205,> 100 µM (inactive)
same,GI50,HOP-62,> 66.5 µM (inactive)
same,GI50,HCT-15,> 100 µM
same,GI50,SF-268,> 100 µM (inactive)
same,GI50,SW-620,> 100 µM (inactive)
same,GI50,OVCAR-5,> 100 µM (inactive)
same,GI50,OVCAR-3,> 100 µM (inactive)
same,GI50,KM-20L2,> 100 µM (inactive)
